Measurements from patent US12011444B2, “N-substituted indole derivatives as PGE2 receptor modulators” (Idorsia Pharmaceuticals Ltd, priority 2015, dated 2024).

What was measured:
PTRGER4 (EP4) = PTRGER4 (EP4) (Homo sapiens (Human), UniProt P35408); assay: hEP4 b-arrestin assay (PathHunter HEK 293 PTGER4 b-arrestin cells); assay type: cell-based
In short: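 Antagonist mode: compound is given 15 min at 37 °C, then 20 nM (final) PGE2 for 120 min, in HEK293 cells stably expressing EP4 fused to ProLink and β-arrestin 2 fused to EA. Recruitment read as β-gal luminescence after 1 h reagent at room temperature, as percent of DMSO control.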

PTGER2 (EP2) = PTGER2 (EP2) (Homo sapiens (Human), UniProt P43116); assay: hEP2 b-arrestin assay (PathHunter HEK 293 PTGER2 b-arrestin cells); assay type: cell-based
Sequence of PTGER2 (EP2) (P43116 whole entry): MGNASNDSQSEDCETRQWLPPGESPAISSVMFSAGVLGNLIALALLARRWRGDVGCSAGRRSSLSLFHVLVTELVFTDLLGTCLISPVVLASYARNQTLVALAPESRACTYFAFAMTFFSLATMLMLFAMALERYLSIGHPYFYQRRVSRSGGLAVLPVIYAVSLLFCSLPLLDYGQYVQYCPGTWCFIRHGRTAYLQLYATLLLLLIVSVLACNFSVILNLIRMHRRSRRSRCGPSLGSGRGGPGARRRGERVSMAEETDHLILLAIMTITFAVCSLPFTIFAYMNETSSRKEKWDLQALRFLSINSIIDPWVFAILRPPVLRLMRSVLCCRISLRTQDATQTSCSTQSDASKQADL
In short: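 Readout is β-galactosidase complementation luminescence, expressed as percent of DMSO control (duplicates). PathHunter HEK293 EP2/β-arrestin 2 cells, grown 24 h, received compound for 15 min at 37 °C before a 120 min challenge with PGE2 at 5 μM final, followed by 1 h detection at room temperature.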

[1] = hEP4 b-arrestin assay (values without asterisk)
[2] = hEP2 b-arrestin assay (values without asterisk)
[3] = antagonistic activity on hEP4, mean where measured multiple times
[4] = antagonistic activity on hEP2, mean where measured multiple times

Sequence of PTRGER4 (EP4) (P35408 whole entry, looked up, the tested form may be a part): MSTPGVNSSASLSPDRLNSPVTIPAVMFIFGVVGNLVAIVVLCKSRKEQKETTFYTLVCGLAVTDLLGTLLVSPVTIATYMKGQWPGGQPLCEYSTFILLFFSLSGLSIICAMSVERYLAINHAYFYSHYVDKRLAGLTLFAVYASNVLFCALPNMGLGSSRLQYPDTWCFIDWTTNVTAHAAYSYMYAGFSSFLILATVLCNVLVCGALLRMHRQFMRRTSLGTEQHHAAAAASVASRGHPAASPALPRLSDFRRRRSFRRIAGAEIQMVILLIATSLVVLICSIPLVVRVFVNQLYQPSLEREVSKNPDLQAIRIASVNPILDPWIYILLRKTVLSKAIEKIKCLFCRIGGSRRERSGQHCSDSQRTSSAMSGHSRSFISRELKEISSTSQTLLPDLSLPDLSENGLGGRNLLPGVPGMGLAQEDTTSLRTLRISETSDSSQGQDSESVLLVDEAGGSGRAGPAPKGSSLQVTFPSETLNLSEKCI

SMILES	IC50 (PTRGER4 (EP4); [1]) [nM]	IC50 (PTGER2 (EP2); [2]) [nM]	IC50 (PTRGER4 (EP4); [3]) [nM]	IC50 (PTGER2 (EP2); [4]) [nM]
CCOc1cc(-c2cc(NCCn3c(C#N)cc4c(OC)ccc(F)c43)ncn2)sc1C(=O)NS(N)(=O)=O [Example 1029, 5-(6-((2-(2-Cyano-7-fluoro-4-methoxy-1H-indol-1-yl)ethyl)amino)pyrimidin-4-yl)-3-ethoxy-N-sulfamoylthiophene-2-carboxamide]	6	4	–	–
CCOc1cc(-c2cc(NCCn3c(C)cc4c(OC)ccc(F)c43)ncn2)sc1-c1noc(=O)[nH]1 [Example 1054, 3-(3-Ethoxy-5-{6-[2-(7-fluoro-4-methoxy-2-methyl-indol-1-yl)-ethylamino]-pyrimidin-4-yl}-thiophen-2-yl)-[1,2,4]oxadiazol-5(4H)-one]	1	1	–	–
Cc1cc2c(Cl)cc(Cl)cc2n1CCNc1cc(-c2cc(Cl)c(C(=O)O)s2)ncn1 [compound 44]	–	–	240	5
CCOc1cc(-c2cc(NCCn3c(C#N)cc4c(OC)ccc(F)c43)ncn2)sc1C(=O)OCCN(C)C [Example 1048, 5-{6-[2-(2-Cyano-7-fluoro-4-methoxy-indol-1-yl)-ethylamino]-pyrimidin-4-yl}-3-ethoxy-thiophene-2-carboxylic acid 2-dimethylamino-ethyl ester]	4	10	–	–
CCc1cc(-c2cc(NCCn3c(C)cc4cc(Cl)cc(F)c43)ncn2)sc1C(=O)O [compound 242]	–	–	216	111
CCOc1cc(-c2cc(NCCn3c(C)cc4cc(F)c(Cl)c(Cl)c43)ncn2)sc1C(=O)O [compound 272]	–	–	716	8
CCOc1cc(-c2cc(NCCn3c(C)cc4c(Cl)c(F)cc(Cl)c43)ncn2)ccc1C(=O)O [compound 351]	–	–	688	52
Cc1nc(-c2ccc(-c3cc(NCCn4c(C)cc5c(C)ccc(F)c54)ncn3)cc2)cs1 [compound 195]	–	–	534	260
COc1ccc(F)c2c1cc(C#N)n2CCNc1cc(-c2ccc(C(O)(O)C(F)(F)F)cc2)ncn1 [Example 1018, 7-Fluoro-4-methoxy-1-(2-{6-[4-(2,2,2-trifluoro-1,1-dihydroxy-ethyl)-phenyl]-pyrimidin-4-ylamino}-ethyl)-1H-indole-2-carbonitrile]	69	94	–	–
COc1ccc(F)c2c1cc(C#N)n2CCNc1cc(-c2ccc3[nH]c(=O)[nH]c3c2)ncn1 [Example 1000, 7-Fluoro-4-methoxy-1-{2-[6-(2-oxo-2,3-dihydro-1H-benzoimidazol-5-yl)-pyrimidin-4-ylamino]-ethyl}-1H-indole-2-carbonitrile]	79	35	–	–
CCOc1cc(-c2cc(NCCn3c(C#N)cc4c(C)c(F)c(F)cc43)ncn2)sc1C(=O)O [Example 890, 5-{6-[2-(2-Cyano-5,6-difluoro-4-methyl-indol-1-yl)-ethylamino]-pyrimidin-4-yl}-3-ethoxy-thiophene-2-carboxylic acid]	23	2	–	–
COc1ccc(F)c2c1cc(C#N)n2CCNc1cc(-c2ccnc(N3CCC3)c2)ncn1 [Example 975, 1-{2-[6-(2-Azetidin-1-yl-pyridin-4-yl)-pyrimidin-4-ylamino]-ethyl}-7-fluoro-4-methoxy-1H-indole-2-carbonitrile]	55	44	–	–
CCOc1cc(-c2cc(NCCn3c(C#N)cc4c(OC)ccc(F)c43)ncn2)sc1CCC(=O)O [Example 932, 3-(5-{6-[2-(2-Cyano-7-fluoro-4-methoxy-indol-1-yl)-ethylamino]-pyrimidin-4-yl}-3-ethoxy-thiophen-2-yl)-propionic acid]	3	14	–	–
CCOc1cc(-c2cc(NCCn3c(C#N)cc4c(OC)ccc(F)c43)ncn2)sc1C(=O)NC(C)C [Example 1027, 5-{6-[2-(2-Cyano-7-fluoro-4-methoxy-indol-1-yl)-ethylamino]-pyrimidin-4-yl}-3-ethoxy-thiophene-2-carboxylic acid isopropylamide]	3	39	–	–
CCOc1cc(-c2cc(NCCn3c(C)cc4cc(C)cc(F)c43)ncn2)ccc1C(=O)O [compound 285]	–	–	691	47
CCOc1cc(-c2cc(NCCn3c(C)cc4c(C)ccc(F)c43)ncn2)sc1C(=O)O [compound 227]	–	–	22	2
COc1cc(C(=O)O)cc(-c2cc(NCCn3c(C#N)cc4c(OC)ccc(F)c43)ncn2)c1 [Example 1005, 3-{6-[2-(2-Cyano-7-fluoro-4-methoxy-indol-1-yl)-ethylamino]-pyrimidin-4-yl}-5-methoxy-benzoic acid]	55	18	–	–

More lines, now with the values ahead:

IC50 (PTRGER4 (EP4); [1]) [nM]	IC50 (PTGER2 (EP2); [2]) [nM]	IC50 (PTRGER4 (EP4); [3]) [nM]	IC50 (PTGER2 (EP2); [4]) [nM]	SMILES
–	–	15	1	CCOc1cc(-c2cc(NCCn3c(C)cc4c(Cl)cccc43)ncn2)sc1C(=O)O [compound 108]
–	–	345	68	CCN1Cc2cc(-c3cc(NCCn4c(C)cc5c(OC)ccc(F)c54)ncn3)ccc2C1=O [compound 320]
27	62	–	–	CCCOc1cc(-c2cc(NCCn3c(C#N)cc4c(OC)ccc(F)c43)ncn2)ccc1CC(=O)O [Example 833, (4-{6-[2-(2-Cyano-7-fluoro-4-methoxy-indol-1-yl)-ethylamino]-pyrimidin-4-yl}-2-propoxy-phenyl)-acetic acid]
41	15	–	–	CCSc1cc(-c2cc(NCCn3c(C#N)cc4c(OC)cc(F)cc43)ncn2)ccc1C(=O)O [Example 954, 4-{6-[2-(2-Cyano-6-fluoro-4-methoxy-indol-1-yl)-ethylamino]-pyrimidin-4-yl}-2-ethylsulfanyl-benzoic acid]
–	–	970	29	Cc1cc2c(Cl)ccc(F)c2n1CCNc1cc(-c2ccc(C(=O)O)cc2)ncn1 [compound 46]
–	–	174	12	COc1cccc2c1cc(C)n2CCNc1cc(-c2ccc(CO)c(F)c2)ncn1 [compound 17, (2-Fluoro-4-{6-[2-(4-methoxy-2-methyl-indol-1-yl)-ethylamino]-pyrimidin-4-yl}-phenyl)-methanol]
–	–	238	87	Cc1ccc(F)c2c1cc(C)n2CCNc1cc(-c2ccc(C(=O)O)c(CCC(C)C)c2)ncn1 [compound 369]
–	–	84	3	CCNc1cc(-c2cc(NCCn3c(C)cc4c(OC)ccc(F)c43)ncn2)cc(Cl)c1C(=O)O [compound 381, 2-Chloro-6-ethylamino-4-{6-[2-(7-fluoro-4-methoxy-2-methyl-indol-1-yl)-ethylamino]-pyrimidin-4-yl}-benzoic acid]
–	–	202	9	COc1cccc2c1cc(C)n2CCNc1cc(-c2ccc(CO)c(Cl)c2)ncn1 [compound 16, (2-Chloro-4-{6-[2-(4-methoxy-2-methyl-indol-1-yl)-ethylamino]-pyrimidin-4-yl}-phenyl)-methanol]
–	–	993	396	COc1ccc(F)c2c1cc(C)n2CCNc1cc(-c2ccc(S(C)(=O)=O)c(F)c2)ncn1 [compound 161]
–	–	995	146	Cc1ccc(F)c2c1cc(C)n2CCNc1cc(-c2ccc(C(=O)NCCO)cc2)ncn1 [compound 168]
–	–	902	9	CSc1cc(-c2cc(NCCn3c(C)cc4c(Cl)ccc(Cl)c43)ncn2)ccc1C(=O)O [compound 221]
–	–	303	15	CCCC1NC(=O)c2ccc(-c3cc(NCCn4c(C)cc5c(OC)cccc54)ncn3)cc21 (racemic) [compound 314]
–	–	268	31	COc1cc(-c2cc(NCCn3c(C)cc4c(C)ccc(F)c43)ncn2)cc(C)c1C(=O)O [compound 286]
–	–	39	4	COc1ccc(F)c2c1cc(C)n2CCNc1cc(-c2ccc(-c3ccn[nH]3)cc2)ncn1 [compound 193, [2-(7-Fluoro-4-methoxy-2-methyl-indol-1-yl)-ethyl]-{6-[4-(2H-pyrazol-3-yl)-phenyl]-pyrimidin-4-yl}-amine]
–	–	629	482	CCc1cccc2c1cc(C)n2CCNc1cc(-c2ccc(C(=O)O)c(CC(C)C)c2)ncn1 [compound 327]
–	–	189	21	COc1ccc(Cl)c2c1cc(C)n2CCNc1cc(-c2ccc3c(c2)CCN3)ncn1 [compound 66, [2-(7-Chloro-4-methoxy-2-methyl-indol-1-yl)-ethyl]-[6-(2,3-dihydro-1H-indol-5-yl)-pyrimidin-4-yl]-amine]
–	–	60	13	COc1ccc(F)c2c1cc(C)n2CCNc1cc(-c2ccc3ncccc3c2)ncn1 [compound 384]
–	–	57	20	CCNC(=O)Nc1ccc(-c2cc(NCCn3c(C)cc4c(OC)cccc43)ncn2)cc1OC [compound 375, 1-Ethyl-3-(2-methoxy-4-{6-[2-(4-methoxy-2-methyl-indol-1-yl)-ethylamino]-pyrimidin-4-yl}-phenyl)-urea]
–	–	324	14	COc1ccc(F)c2c1cc(C)n2CCNc1cc(-c2ccc3c(c2)C(C)NC3=O)ncn1 (racemic) [compound 203]
–	–	932	8	CCCc1cc(-c2cc(NCCn3c(C)cc4cccc(F)c43)ncn2)ccc1C(=O)O [compound 125, 4-{6-[2-(7-Fluoro-2-methyl-indol-1-yl)-ethylamino]-pyrimidin-4-yl}-2-propyl-benzoic acid]
–	–	415	39	COc1ccc(F)c2c1cc(C)n2CCNc1cc(-c2ccc(-n3ccc(C)n3)cc2)ncn1 [compound 310, [2-(7-Fluoro-4-methoxy-2-methyl-indol-1-yl)-ethyl]-{6-[4-(3-methyl-pyrazol-1-yl)-phenyl]-pyrimidin-4-yl}-amine]
